Where two headings read alike, the source gives them in different places.

Test [1] is described as follows: analgesic activity (technique of E. Siegmund et al.). The class given is in vivo. An excerpt:
Exp. Biol. Med., 95, 729 (1957).

Test [2] has as its system septide. As to the kind of experiment: antagonism of hypotension induced by septide / substance P (technique of C. A. Maggi et al.). The class given is in vivo. Conditions: 0.2 mg/kg i.v./min, for 5 min; rats; i.v. injection of 250 μg of septide. As for the experimental part:
The injection of substance P into the animal causes hypotension. The products studied using the technique of C. A. Maggi et al., J. Auton. Pharmac., 7, 11-32 (1987) show an antagonist effect in rats towards this hypotension. In particular, the product of Example 60 administered in a dose of 0.2 mg/kg i.v./min, for 5 min, causes an approximately 50% antagonism of the hypotension induced by an i.v. injection of 250 μg of septide.

In test [3] the test system is septide. As to the kind of experiment: antagonism of behavioural effects induced by septide administered intrathecally (technique of R. E. Rodriguez et al.). Conditions: rats. The class given is in vivo.
Another test deals with substance P. In words: inhibition of the increase in capillary permeability caused by substance P (technique of A. Saria et al.). The class given is in vivo. The settings on record: Rattus norvegicus, iv, rats. From the text: The study of several isoindolone derivatives of general formula (I) using the technique of A. Saria et al., Arch.
Test [4] concerns substance P receptors of human cells: lymphoblasts of line IM 9. As to the kind of experiment: binding of substance P-H^3 on washed homogenates of IM-9 cells. The settings on record: substance P-H^3 1 nM. As to the method:
Substance P plays a role in the modulation of immune processes (J. P. McGillis et al., Fed. Proc., 46 (1), 196-199 (1987)). Substance P binds to receptors of human cells in cultures: the lymphoblasts of line IM 9 [D. G. Payan et al., J. of Immunology, 133 (6), 3260-5 (1984)]. The products according to the invention displace substance P at these locations.
Binding substance P--H^3 (concentration 1 nM)
on washed homogenates of IM-9 cells after freezing

For `O=C1CCC(c2ccccc2)(c2ccccc2)[C@@H]2CN(C(Cc3ccccc3)=NCc3ccccc3)C[C@H]12` (racemic) [Example 13, (3aRS,7aRS)-2-(α-benzyliminophenethyl)-7,7-diphenyl-4-perhydroisoindolone], in test [1] (po, read-out: ED50), the ED50 is 19 mg/kg.
For `CN(C)c1ccccc1CC(=O)N1C[C@@H]2C(=O)CCC(c3ccccc3)(c3ccccc3)[C@@H]2C1` [Example 60, (3aR,7aR)-7,7-diphenyl-2-[2-(2-dimethylaminophenyl)acetyl]-4-perhydroisoindolone], in the test on septide [2], the “antagonism of the hypotension induced by septide” value was “approximately 50%”. In addition, the “% inhibition of the behaviour at a dose of 10 mg/kg sc” value in the test on septide [3] is 80%. Also, the ED50 was 38 mg/kg in test [1] (po, read-out: ED50) and about 1 mg/kg with substance P.
With `COc1ccccc1CC(=O)N1C[C@@H]2C(=O)CCC(c3ccccc3)(c3ccccc3)[C@@H]2C1` [Example 49, (3aR,7aR)-(-)-7,7-diphenyl-2-[(2-methoxyphenyl)acetyl]-4-perhydroisoindolone], in test [4], the “Binding substance P-H^3 (concentration 1 nM) on washed homogenates of IM-9 cells after freezing” value is recorded as 680.
Consider `O=C1CCC(c2ccccc2)(c2ccccc2)[C@@H]2CN(C(Cc3ccccc3)=NCc3cccs3)C[C@H]12` (relative stereo) [Example 27], for which the ED50 in test [1] (po, read-out: ED50) was determined as 29 mg/kg.
With `COc1ccccc1[C@H](C)C(=O)N1C[C@@H]2C(=O)CCC(c3ccccc3)(c3ccccc3)[C@@H]2C1` [Example 76, (3aR,7aR)-7,7-diphenyl-2-[(S)-2-(2-methoxyphenyl)propionyl]-4-perhydroisoindolone], the “Binding substance P-H^3 (concentration 1 nM) on washed homogenates of IM-9 cells after freezing” value in test [4] worked out at 315.
Consider `COc1ccccc1CC(=N)N1C[C@@H]2C(=O)CCC(c3ccccc3)(c3ccccc3)[C@@H]2C1` [Example 50, (3aR,7aR)-2-[1-imino-2-(2-methoxyphenyl)ethyl]-7,7-diphenyl-4-perhydroisoindolone], for which the “% inhibition of the behaviour at a dose of 10 mg/kg sc” value in the test on septide [3] is listed as 50%. The ED50 in test [1] (p.o.) was 0.3 mg/kg p.o; with substance P, about 0.05 mg/kg.
Take `COc1ccccc1CC(=N)N1C[C@@H]2C(=O)CCC(c3ccccc3)(c3ccccc3)[C@@H]2C1` (racemic) [Example 48, (3aRS,7aRS)-2-[1-imino-2-(2-methoxyphenyl)ethyl]-7,7-diphenyl-4-perhydroisoindolone]: the ED50 in test [1] (p.o.) is 4 mg/kg p.o.
In the case of `N=C(Cc1ccccc1)N1C[C@@H]2C(=O)CCC(c3ccccc3)(c3ccccc3)[C@@H]2C1` (racemic) [Example 4, (3aRS,7aRS)-2-(α-iminophenethyl)-7,7-diphenyl-4-perhydroisoindolone], the ED50 in test [1] (po, read-out: ED50) was 42 mg/kg.

Source of the values: patent US5102667A, “Isoindolone derivatives, their preparation and the pharmaceutical compositions containing them” (Rhone-Poulenc Sante, priority 1989, dated 1992).
